Experiments:
[1] = test system: dopamine transporter protein over the norepinephrine transporter protein; details: selectivity for dopamine transporter over norepinephrine transporter; cited from earlier work
[2] = cited from earlier work

CN1Cc2cc(-c3ccoc3)ccc2C(c2ccccc2)C1 (stereo not drawn)
melting point: 188 to 189 °C (dec.)

COC(=O)C(c1ccccc1)C1CCCCN1 (stereo not drawn) [Methylphenidate]
DAT/NET Ki ratio [1]: 0.1

CN1Cc2c(N)cccc2C(c2ccccc2)C1 (stereo not drawn) [Nomofensine]
side effect of long term administration [2]: fatal immune hemolytic anemia
